Measured values: the Biogen ADME set (Fang et al. 2023)
In brackets after ≈: the same amount, converted by molar mass.

Conditions: for aqueous solubility: pH 6.8

Row | Structure (SMILES) | MDR1-MDCK efflux ratio | intrinsic clearance, human liver microsomes [mL/min/kg] | intrinsic clearance, rat liver microsomes [mL/min/kg] | aqueous solubility [µg/mL] | fraction unbound, human plasma | fraction unbound, rat plasma
1 | O=C(c1ccccn1)N1CCCC(c2cccc(-c3cccc(Cl)c3)n2)C1 (stereo not drawn) | 0.791 | 164 | 1300 | 29.9 (≈ 79.3 µM) |  | 
2 | CCN(CC)C(=O)N1CCCN(C(=O)N(CC)CC)CC1 | 4.51 | 68.5 | 698 | 48.6 (≈ 163 µM) |  | 
3 | Cn1ccnc1CNc1cc(Br)ccc1-n1cccn1 | 0.841 | 31.6 | 291 | 48.6 (≈ 146 µM) |  | 
4 | CN(CC(N)=O)Cc1cc2c(cc1Br)OCO2 | 0.761 | 10.4 | 324 | 69.7 (≈ 231 µM) |  | 
5 | Cc1cccc(/C=N/Nc2cc(N3CCOCC3)nc(OCCc3ccccn3)n2)c1 | 0.917 | 130 |  |  | 0.00283 | 0.0053
6 | NCc1ccc(Oc2ccccc2)nc1 |  | 20.7 | 50.5 | 22 (≈ 110 µM) |  | 
7 | N#Cc1cc(F)c(N2CCN(CCO)CC2)c(F)c1 | 0.524 | ≤ 4.74 | ≤ 10.7 | 41.3 (≈ 154 µM) |  | 
8 | Cc1sc2ncnc(N3CCC(C(=O)Nc4ccccn4)CC3)c2c1C |  |  |  | 1.85 (≈ 5.03 µM) |  | 
9 | CC(=O)NCc1cc2n(n1)CCN(C1Cc3ccccc3C1)C2 | 1.12 | ≤ 4.74 | ≤ 10.7 |  |  | 
10 | O=C(Nn1cnc2ccccc21)c1c2c(nc3ccccc13)CCC2 | 43.2 | ≤ 4.74 | ≤ 10.7 | 56.7 (≈ 173 µM) |  | 
11 | COc1cccc(CN(C)c2cc(N3CCCC3)ncn2)n1 | 0.683 | 128 | 4460 |  |  | 
12 | COc1cc2nc(N)sc2cc1OC | 0.668 | ≤ 4.74 | 12.6 | 32.6 (≈ 155 µM) |  | 
13 | CC(C)N1CCN(CCCSc2ccccn2)CC1 | 0.74 | 128 | 1080 |  |  | 
14 | O=[N+]([O-])c1ccc(S(=O)(=O)Nc2cccc(-c3nc4ccccc4[nH]3)c2)cc1 |  | 21.1 | 993 |  |  | 
15 | COCCc1noc(CN2CC(c3ccccc3)(c3ccccc3)CCC2=O)n1 | 2.43 | 211 | 2010 |  | 0.147 | 0.179
16 | O=C(c1ccc(-c2ccncc2)cc1)N1CCC(F)(F)CC1 |  | ≤ 4.74 | 43.2 |  |  | 
17 | CC(C)[C@H](NC(=O)c1c(F)cccc1F)C(=O)N1CCOCC1 | 8.08 | ≤ 4.74 | ≤ 10.7 | 50.7 (≈ 155 µM) |  | 
18 | O=C(O)c1ccc(=O)n(CCc2c[nH]c3ccccc23)c1 | 2.39 | ≤ 4.74 | ≤ 10.7 | 42.4 (≈ 150 µM) |  | 
19 | Cc1ccc(S(=O)(=O)NC(=O)c2c(C)cc3n2CCn2c(C)ccc2-3)cc1 |  |  |  | 33.1 (≈ 86.3 µM) |  | 
20 | Cc1ccsc1CN(C)C(=O)[C@@H]1CCCN1C(=O)NC(C)C | 23.7 | 13 | 355 | 42.1 (≈ 130 µM) |  | 

Row | Structure (SMILES) | MDR1-MDCK efflux ratio | intrinsic clearance, human liver microsomes [mL/min/kg] | intrinsic clearance, rat liver microsomes [mL/min/kg] | aqueous solubility [µg/mL] | fraction unbound, human plasma | fraction unbound, rat plasma
21 | c1cc(CN2CCC(c3ccn[nH]3)CC2)ccn1 | 1.05 | 5.91 | 32.1 | 28.2 (≈ 116 µM) |  | 
22 | CSCC[C@@H](CO)n1ccnc1-c1oc2ccccc2c1C | 3.51 | 167 | 2000 | 73.2 (≈ 231 µM) |  | 
23 | O=C1N[C@@H]2CCN(C(=O)c3ccc(-c4ccccc4)cc3)[C@@H]2C(=O)N1c1ccc(F)cc1 | 44.4 | ≤ 4.74 | 29.7 | 31.5 (≈ 73.3 µM) |  | 
24 | N#Cc1c(Cl)nc(N)n1-c1ccccc1 |  | 11.7 | 27.7 |  |  | 
25 | COc1ccc2c(c1)C(=O)N(c1ccccc1OC)C(=O)C2 |  |  |  | 40.3 (≈ 135 µM) |  | 
26 | CCCc1nc2nc(C)c(NS(=O)(=O)c3ccc(C4CCCCC4)cc3)c(O)n2n1 | 50.3 | 169 |  | 43.9 (≈ 102 µM) | 0.00604 | 0.00729
27 | Nc1n[nH]cc1-c1cc(Cl)ccc1Oc1cc(F)c(S(=O)(=O)Nc2cscn2)cc1Cl | 76.2 | 11.6 | 37.3 | 29.9 (≈ 59.7 µM) | 0.00442 | 0.00827
28 | Fc1ccc(CNc2nnc(-c3ccc4c(c3)OCO4)o2)cc1 | 0.313 | 95.2 | 4490 | 2.57 (≈ 8.2 µM) |  | 
29 | Cc1cccc(NC(=O)c2cncn2-c2ccccc2)n1 |  | 45.2 | 165 |  |  | 
30 | O=C(NC1CCCCC1)C1CCN(c2ccncc2Cl)CC1 | 0.838 | 22.4 | 257 | 22 (≈ 68.4 µM) |  | 
31 | CC(C)c1cnc(COc2ccc(Br)nc2)o1 | 0.527 | 73 | 983 | 41.7 (≈ 140 µM) |  | 
32 | Cc1cnc(C(=O)N[C@H]2CCOC[C@@H]2O)cc1Cc1ccc(-c2cscn2)cc1 | 6.89 | ≤ 4.74 | 34.8 | 61.9 (≈ 151 µM) |  | 
33 | O=C(CCCc1nnc(-c2ccccc2)o1)Nc1cccc2ccccc12 | 0.976 | 71.6 | 1150 | 1.31 (≈ 3.67 µM) |  | 
34 | O=S(=O)(c1cccnc1)N1CCC2(Cc3ccccc3C2)C1 | 0.627 | 91.2 | 5070 |  |  | 
35 | CCOc1ccc(CC(=O)NCCn2cccnc2=O)cc1 | 18 | ≤ 4.74 | 11.1 | 68.5 (≈ 227 µM) |  | 
36 | CC(=O)N(C)[C@H]1CC2(CCN(C(=O)COc3cc(C)c(Cl)c(C)c3)CC2)OC[C@]1(C)O | 8.59 | 78.1 | 442 |  |  | 
37 | CN(C)c1nc(-c2cccc(-c3ccccc3)c2)n[nH]1 |  |  |  | 0.81 (≈ 3.06 µM) |  | 
38 | O=C(Nc1cc(Cl)ccc1Cl)c1cccc(N2CCCC2=O)c1 |  | 156 | 969 | 34.8 (≈ 99.7 µM) |  | 
39 | COCCNC(=O)c1nnc2n(c1=O)CCN2c1ccccc1 | 9.52 | ≤ 4.74 | ≤ 10.7 |  |  | 
40 | Cc1cc(OCc2ccnc(Cl)c2)nnc1C |  | ≤ 4.74 | 51.6 |  |  | 

Row | Structure (SMILES) | MDR1-MDCK efflux ratio | intrinsic clearance, human liver microsomes [mL/min/kg] | intrinsic clearance, rat liver microsomes [mL/min/kg] | aqueous solubility [µg/mL] | fraction unbound, human plasma | fraction unbound, rat plasma
41 | COc1ccc2c(-c3ccccc3)cc3nnnn3c2c1 | 0.48 |  |  | 0.15 (≈ 0.543 µM) |  | 
42 | Cc1cc(C)cc(OCCN(C)C(=O)NCCN2CCCCC2=O)c1 | 29.2 | 150 | 1300 |  |  | 
43 | O=C(O)c1ccc(N2CCCC2)c(F)c1 | 0.865 | ≤ 4.74 | 14.4 | 27.3 (≈ 130 µM) |  | 
44 | COC(=O)N1CCCN(C(=O)C(=O)Nc2cccc(C(C)C)c2)CC1 | 1.07 | 66.2 | 1220 | 58.4 (≈ 168 µM) |  | 
45 | O=C(c1cccs1)N1CCCC(C(=O)N2Cc3ccccc3C(c3ccccc3)C2)C1 (stereo not drawn) |  | 767 | 4910 | 24.7 (≈ 57.4 µM) |  | 
46 | O=C(NC1CCNCC1)c1ccc2cn[nH]c2c1 |  | 16.1 |  |  | 1 | 0.511
47 | Cc1cc(NCC2(c3ccncc3)CC2)ncn1 | 2.49 | ≤ 4.74 | 198 |  |  | 
48 | Cc1ccnc(NCc2cccnc2)n1 | 0.596 | ≤ 4.74 | 16.5 |  |  | 
49 | Cc1ccc(CCNC(=O)c2ccncc2)o1 | 0.705 | ≤ 4.74 | 52.3 | 29.3 (≈ 127 µM) |  | 
50 | OCCn1cc(-c2ccc3c(c2)CC/C3=N\O)c(-c2ccncc2)n1 | 36.4 | 9.21 | 123 | 13.7 (≈ 41 µM) |  | 
51 | c1ccc(-c2nc(CSc3ccc(-n4cccn4)nn3)cs2)cc1 | 0.541 | 75.1 | 420 |  |  | 
52 | CSc1nccc(N2Cc3cnn(Cc4ccc(F)cc4)c3C2)n1 | 0.579 | 141 | 2590 |  |  | 
53 | CN(CC1(CO)CCC1)C(=O)CCN1CCCCC1=O | 23.2 | ≤ 4.74 | 46 |  |  | 
54 | O=C(CC[C@@H]1CCCN2CCCC[C@H]12)NCc1cnc2c(c1)CCC2 | 26.7 | ≤ 4.74 | 286 |  |  | 
55 | Brc1ccc(-c2nnc(Cn3cnc4ccccc43)o2)o1 | 0.976 | ≤ 4.74 | 41.1 | 62.7 (≈ 182 µM) |  | 
56 | O=C(NC1CC1)c1cccnc1Oc1ccccc1 | 0.592 | ≤ 4.74 | 11.7 | 65.2 (≈ 257 µM) |  | 
57 | CCc1ccccc1S(=O)(=O)NCCc1cn[nH]c1 | 2.65 | 34.8 | 533 |  |  | 
58 | COCCN(C)C(=O)c1ccc(-c2cccc(-c3noc(C)n3)c2)cc1 | 0.878 | 11.4 | 75.2 |  |  | 
